{
  "source": "patent US11027021B2",
  "about": "“Combinations of PBD-based antibody drug conjugates with Bcl-2 inhibitors” (Seagen Inc., priority 2016, dated 2021)",
  "key": {"MOLM-13 cells": {"tested_on": "MOLM-13 cells", "experiment": "MOLM-13 subcutaneous xenograft survival experiment", "format": "in vivo", "settings": "ABT-199 alone 100 mg/kg daily by oral gavage for 14 days; MOLM-13 xenograft, SCID mice", "description": "(§1) Tumor growth was monitored throughout the course of the study with bilateral vernier caliper measurements, and mean tumor volumes were calculated using the equation (0.5×[length×width^2]). […] Mice with advanced tumor burden were sacrificed upon reaching tumor volumes of greater than 400 mm^3 or showing symptoms of hind limb paralysis, cranial swelling, and/or moribundity."}, "RL cells": {"tested_on": "RL cells", "experiment": "RL subcutaneous xenograft survival experiment", "format": "in vivo", "settings": "ABT-199 alone 100 mg/kg daily by oral gavage for 14 days, SCID mice", "description": "as §1"}},
  "data": [
    {"smiles": "CC1(C)CCC(CN2CCN(c3ccc(C(=O)NS(=O)(=O)c4ccc(NCC5CCOCC5)c([N+](=O)[O-])c4)c(Oc4cnc5[nH]ccc5c4)c3)CC2)=C(c2ccc(Cl)cc2)C1", "note": "[ABT-199, 2-(1H-pyrrolo[2,3-b]pyridin-5-yloxy)-4-(4-((2-(4-chlorophenyl)-4,4-dimethylcyclohex-1-enyl)methyl)piperazin-1-yl)-N-(3-nitro-4-(((tetrahydro-2H-pyran-4-yl)methyl)amino)phenylsulfonyl)benzamide]", "values": [
      {"measurement": "rate of survival by day 20", "setting": "MOLM-13 cells", "result": 0, "unit": "%"},
      {"measurement": "rate of survival by day 30", "setting": "RL cells", "result": 0, "unit": "%"}
    ]}
  ]
}
